Data: ChEMBL document CHEMBL1201862, “PubChem BioAssay data set” (2004)
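These data come from cells grown in 96-well plates and exposed to compound for 48 hours at five concentrations. GI50 is the concentration that inhibits growth by half.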 Calls of active or inactive are those of the source. Cut-off read from the data, not from the text of the source: active = GI50 up to about 1.1 µM and inactive = higher.

Assays:
Test in all cases: NCI-60 cell line screen, 48 h
786-0 = tested on: 786-0
A498 = tested on: A498
ACHN = tested on: ACHN
HCT-116 = tested on: HCT-116
HOP-92 = tested on: HOP-92
HT-29 = tested on: HT-29
K562 = tested on: K562
KM12 = tested on: KM12
LOX IMVI = tested on: LOX IMVI
M14 = tested on: M14
MOLT-4 = tested on: MOLT-4
NCI-H460 = tested on: NCI-H460
NCI-H522 = tested on: NCI-H522
SF-268 = tested on: SF-268
SK-MEL-28 = tested on: SK-MEL-28
SR = tested on: SR
U-251 = tested on: U-251
MDA-MB-231 = tested on: MDA-MB-231
NCI/ADR-RES = tested on: NCI/ADR-RES
MDA-MB-435 = tested on: MDA-MB-435

Measured: GI50

[O-][Cl+3]([O-])([O-])O.c1ccc(/N=c2\nc(N3CCOCC3)ss2)cc1
inactive: 786-0 16.4 µM | A498 27.7 µM | ACHN 16.5 µM | HCT-116 14.6 µM | HOP-92 21.9 µM | HT-29 20 µM | K562 16.5 µM | KM12 17.2 µM | LOX IMVI 16 µM | M14 14.7 µM | MOLT-4 12.3 µM | NCI-H460 17.6 µM | NCI-H522 12.7 µM | SF-268 16 µM | SK-MEL-28 17.2 µM | SR 16.6 µM | U-251 15.2 µM

COC(=O)/C(C#N)=C1\NC(=O)CC(c2ccccc2)C1C#N (stereo unspecified)
inactive: 786-0 > 100 µM | ACHN > 100 µM | HCT-116 > 100 µM | HOP-92 63.5 µM | HT-29 > 100 µM | K562 > 100 µM | KM12 > 100 µM | LOX IMVI > 100 µM | M14 > 100 µM | MDA-MB-231 > 100 µM | MOLT-4 > 100 µM | NCI-H460 > 100 µM | NCI-H522 > 100 µM | NCI/ADR-RES > 100 µM | SF-268 > 100 µM | SK-MEL-28 > 100 µM | SR > 100 µM

CC(C(=O)c1ccncc1)c1ccccn1 (stereo unspecified)
inactive: 786-0 > 100 µM | A498 > 100 µM | ACHN > 100 µM | HCT-116 > 100 µM | HOP-92 > 100 µM | HT-29 > 100 µM | K562 > 100 µM | KM12 > 100 µM | LOX IMVI > 100 µM | M14 > 100 µM | MDA-MB-231 > 100 µM | MDA-MB-435 > 100 µM | NCI-H460 > 100 µM | NCI-H522 > 100 µM | NCI/ADR-RES > 100 µM | SF-268 > 100 µM | SK-MEL-28 > 100 µM | U-251 > 100 µM

O=C1CC(=O)c2c(N3CCCC3)sc(N3CCCC3)c21
inactive: 786-0 > 100 µM | A498 > 100 µM | ACHN > 100 µM | HCT-116 > 100 µM | HOP-92 > 100 µM | HT-29 > 100 µM | K562 57.4 µM | KM12 > 100 µM | LOX IMVI > 100 µM | M14 > 100 µM | MDA-MB-435 > 100 µM | MOLT-4 59 µM | NCI-H460 > 100 µM | NCI-H522 57.4 µM | NCI/ADR-RES > 100 µM | SF-268 > 100 µM | SK-MEL-28 > 100 µM | SR > 100 µM | U-251 > 100 µM

COc1cc(/C=C2\[C@@H]3NC(Cc4c(OC)c(C)c(OC)c(OC)c43)C(=O)N2Cc2ccccc2)c(OC)c(C)c1OC
inactive: 786-0 48.6 µM | A498 30.9 µM | ACHN 44 µM | HCT-116 37.5 µM | HOP-92 20 µM | HT-29 24.9 µM | K562 34.3 µM | KM12 56.1 µM | LOX IMVI 42.7 µM | M14 31.3 µM | MOLT-4 27.5 µM | NCI-H460 21.6 µM | NCI-H522 18.4 µM | SF-268 59.3 µM | SK-MEL-28 60.7 µM | SR 25 µM | U-251 35.2 µM

CC(=O)CCC1(C(=O)OCC(C)C)CCCC1=O (stereo unspecified)
inactive: 786-0 > 100 µM | ACHN > 100 µM | HCT-116 > 100 µM | HOP-92 90.6 µM | HT-29 > 100 µM | K562 > 100 µM | KM12 > 100 µM | LOX IMVI > 100 µM | M14 > 100 µM | MDA-MB-231 > 100 µM | MDA-MB-435 > 100 µM | MOLT-4 > 100 µM | NCI-H460 > 100 µM | NCI-H522 > 100 µM | NCI/ADR-RES > 100 µM | SF-268 > 100 µM | SK-MEL-28 > 100 µM | U-251 > 100 µM

Cc1ccc2c(=O)c(C(=O)NNC(=S)NC3CCCCC3)c[nH]c2n1
inactive: 786-0 > 100 µM | A498 > 100 µM | ACHN 96.4 µM | HCT-116 99.5 µM | HT-29 53.1 µM | K562 30.6 µM | KM12 56.8 µM | LOX IMVI 51.3 µM | M14 53.2 µM | MDA-MB-231 52.7 µM | MDA-MB-435 30.1 µM | MOLT-4 32.7 µM | NCI-H460 80 µM | NCI-H522 51.6 µM | NCI/ADR-RES > 100 µM | SF-268 96.8 µM | SK-MEL-28 77.8 µM | U-251 65.9 µM

C=C(c1ccccc1)[C@@]1(O)CCCC[C@H]1NC(c1ccccc1)c1ccccc1
inactive: 786-0 12.7 µM | A498 13.9 µM | ACHN 11.7 µM | HCT-116 7.93 µM | HOP-92 12.6 µM | HT-29 11.7 µM | K562 7.69 µM | KM12 11.1 µM | LOX IMVI 9.84 µM | M14 14 µM | MOLT-4 2.73 µM | NCI-H460 13 µM | NCI-H522 8.85 µM | SF-268 13.6 µM | SK-MEL-28 15.5 µM | SR 1.7 µM | U-251 10.7 µM
